This passage reports IC50 results from patent US12534452B2, “N-(1H-imidazol-2-yl)benzamide compound and pharmaceutical composition comprising the same as active ingredient” (KAINOS MEDICINE, INC., priority 2019, dated 2026).

SMILES strings stand for the structures.

IRAK4, sequence (Q9NWZ3 whole entry): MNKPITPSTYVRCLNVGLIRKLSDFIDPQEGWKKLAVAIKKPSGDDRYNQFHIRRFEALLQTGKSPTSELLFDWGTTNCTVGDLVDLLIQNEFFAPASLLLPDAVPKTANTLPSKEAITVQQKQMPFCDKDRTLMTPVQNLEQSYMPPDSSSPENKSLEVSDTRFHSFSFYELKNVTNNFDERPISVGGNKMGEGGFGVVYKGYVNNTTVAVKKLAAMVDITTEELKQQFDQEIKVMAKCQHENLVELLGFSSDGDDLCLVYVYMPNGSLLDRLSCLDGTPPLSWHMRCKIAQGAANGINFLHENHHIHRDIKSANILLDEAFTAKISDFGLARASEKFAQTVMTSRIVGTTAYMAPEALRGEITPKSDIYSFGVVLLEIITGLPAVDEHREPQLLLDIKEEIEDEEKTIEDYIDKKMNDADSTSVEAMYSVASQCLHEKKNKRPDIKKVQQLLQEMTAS

The target of the assay is IRAK4 (Homo sapiens (Human), UniProt Q9NWZ3). In words: In vitro IRAK4 phosphorylation activity assay. It counts as biochemical. As to conditions: [γ-33P]-ATP, myelin basic protein substrate, 40 minutes at room temperature; categories. The procedure, abridged:
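Radiometric filter-binding assay, no compound–kinase preincubation; 8 mM MOPS pH 7.0, 0.2 mM EDTA, 10 mM Mg acetate, 0.33 mg/mL myelin basic protein substrate, [γ-33P]-ATP. Reaction 40 min at room temperature, stopped with phosphoric acid, scintillation counting; IC50 reported in categories.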
`Nc1ccc(-c2cccc(C(=O)Nc3nc(CCCCCC(=O)N4CCCCC4)cn3-c3ccccc3)c2)cn1` [Example 271, 3-(6-aminopyridin-3-yl)-N-(4-(6-oxo-6-(piperidin-1-yl)hexyl)-1-phenyl-1H-imidazol-2-yl)benzamide]: the IC50 was below 50 nM.

The molecule `Cn1cc(-c2cccc(C(=O)Nc3nc(CCCC(=O)N4CCC(C#N)CC4)cn3-c3ccccc3)c2)cn1` [Example 168, N-(4-(4-(4-cyanopiperidin-1-yl)-4-oxobutyl)-1-phenyl-1H-imidazol-2-yl)-3-(1-methyl-TH-pyrazol-4-yl)benzamide] had an IC50 below 50 nM.

For the molecule `O=C(CCc1cn(-c2ccccc2)c(NC(=O)c2cccc(-c3cn[nH]c3)c2)n1)Nc1ccc(F)cc1` [Example 10, N-(4-(3-((4-fluorophenyl)amino)-3-oxopropyl)-1-phenyl-1H-imidazol-2-yl)-3-(1H-pyrazol-4-yl)benzamide], the IC50 was in the range of 50 to 100 nM.

`CNC(=O)CCCCCc1cn(-c2ccccc2)c(NC(=O)c2cccc(-c3cn[nH]c3)c2)n1` [Example 94, N-(4-(6-(methylamino)-6-oxohexyl)-1-phenyl-1H-imidazol-2-yl)-3-(1H-pyrazol-4-yl)benzamide] returned an IC50 below 50 nM.

As for `O=C(Nc1nc(CCCCN2CCCC2=O)cn1-c1ccccc1)c1cccc(-c2ccc3[nH]ncc3c2)c1` [Example 258, 3-(1H-indazol-5-yl)-N-(4-(4-(2-oxopyrrolidin-1-yl)butyl)-1-phenyl-1H-imidazol-2-yl)benzamide], the IC50 is below 50 nM.

Turning to `CNC(=O)CCCCc1cn(-c2ccccc2)c(NC(=O)c2cccc(-c3cn[nH]c3)c2)n1` [Example 80, N-(4-(5-(methylamino)-5-oxopentyl)-1-phenyl-1H-imidazol-2-yl)-3-(1H-pyrazol-4-yl)benzamide], the IC50 was below 50 nM.

Molecule `Cn1cc(-c2cccc(C(=O)Nc3nc(CCC(=O)N4CCNCC4)cn3-c3ccccc3)c2)cn1` [Example 203, 3-(1-methyl-1H-pyrazol-4-yl)-N-(4-(3-oxo-3-(piperazin-1-yl)propyl)-1-phenyl-1H-imidazol-2-yl)benzamide] came in with an IC50 of 50 to 100 nM.

Take `COC[C@H]1CCCN1NC(=O)CCc1cn(-c2ccccc2)c(NC(=O)c2cccc(-c3cn[nH]c3)c2)n1` [Example 17, (R)—N-(4-(3-((2-(methoxymethyl)pyrrolidin-1-yl)amino)-3-oxopropyl)-1-phenyl-1H-imidazol-2-yl)-3-(1H-pyrazol-4-yl)benzamide]: the IC50 is above 100 nM.

`O=C(Nc1nc(CCC(=O)N2CCCC(C(=O)O)C2)cn1-c1ccccc1)c1cccc(-c2cn[nH]c2)c1` [Example 36, (S)-1-(3-(2-(3-(1H-pyrazol-4-yl)benzamido)-1-phenyl-1H-imidazol-4-yl)propanoyl)piperidine-3-carboxylic acid]: the IC50 was below 50 nM.

Regarding `C[C@@H]1CCCN1C(=O)CCc1cn(-c2ccccc2)c(NC(=O)c2cccc(-c3cn[nH]c3)c2)n1` [Example 23, (R)—N-(4-(3-(2-methylpyrrolidin-1-yl)-3-oxopropyl)-1-phenyl-1H-imidazol-2-yl)-3-(1H-pyrazol-4-yl)benzamide], the IC50 was below 50 nM.

Consider `CN1CCC(NC(=O)CCCc2cn(-c3ccccc3)c(NC(=O)c3cccc(-c4cnn(C)c4)c3)n2)CC1` [Example 148, 3-(1-methyl-1H-pyrazol-4-yl)-N-(4-(4-((1-methylpiperidin-4-yl)amino)-4-oxobutyl)-1-phenyl-1H-imidazol-2-yl)benzamide], for which the IC50 was 50 to 100 nM.

For the molecule `O=C(CCCCc1cn(-c2ccccc2)c(NC(=O)c2cccc(-c3cn[nH]c3)c2)n1)NC1CCCCC1` [Example 89, N-(4-(5-(cyclohexylamino)-5-oxopentyl)-1-phenyl-1H-imidazol-2-yl)-3-(1H-pyrazol-4-yl)benzamide], the IC50 was below 50 nM.

As to `O=C(CCCc1cn(-c2ccccc2)c(NC(=O)c2cccc(-c3ccc4[nH]ncc4c3)c2)n1)NC1CC1` [Example 245, N-(4-(4-(cyclopropylamino)-4-oxobutyl)-1-phenyl-1H-imidazol-2-yl)-3-(1H-indazol-5-yl)benzamide], the IC50 was below 50 nM.

Molecule `O=C(Nc1nc(CCO)cn1-c1ccccc1)c1cccc(-c2cn[nH]c2)c1` [Example 103, N-(4-(2-hydroxyethyl)-1-phenyl-1H-imidazol-2-yl)-3-(1H-pyrazol-4-yl)benzamide] came in with an IC50 below 50 nM.

As for `CN1CCN(C(=O)CCCCCc2cn(-c3ccccc3)c(NC(=O)c3cccc(-c4ccc5scnc5c4)c3)n2)CC1` [Example 288, 3-(benzo[d]thiazol-5-yl)-N-(4-(6-(4-methylpiperazin-1-yl)-6-oxohexyl)-1-phenyl-1H-imidazol-2-yl)benzamide], the IC50 is above 100 nM.

`C[C@H]1CCCCN1C(=O)CCCCc1cn(-c2ccccc2)c(NC(=O)c2cccc(-c3cn[nH]c3)c2)n1` [Example 82, (S)—N-(4-(5-(2-methylpiperidin-1-yl)-5-oxopentyl)-1-phenyl-1H-imidazol-2-yl)-3-(1H-pyrazol-4-yl)benzamide] displayed an IC50 of 50 to 100 nM.

Molecule `CN1CCN(C(=O)CCCCCc2cn(-c3ccccc3)c(NC(=O)c3cccc(-c4ccc5[nH]ncc5c4)c3)n2)CC1` [Example 239, 3-(1H-indazol-5-yl)-N-(4-(6-(4-methylpiperazin-1-yl)-6-oxohexyl)-1-phenyl-1H-imidazol-2-yl)benzamide] returned an IC50 below 50 nM.

With `COC[C@@H]1CCCN1C(=O)CCCCCc1cn(-c2ccccc2)c(NC(=O)c2cccc(-c3cn[nH]c3)c2)n1` [Example 100, (S)—N-(4-(6-(2-(methoxymethyl)pyrrolidin-1-yl)-6-oxohexyl)-1-phenyl-1H-imidazol-2-yl)-3-(1H-pyrazol-4-yl)benzamide], the IC50 is below 50 nM.

Molecule `Cn1cc(-c2cccc(C(=O)Nc3nc(CCCC(=O)N4CCOCC4)cn3-c3ccccc3)c2)cn1` [Example 160, 3-(1-methyl-1H-pyrazol-4-yl)-N-(4-(4-morpholino-4-oxobutyl)-1-phenyl-H-imidazol-2-yl)benzamide] yielded an IC50 below 50 nM.

As to `Cn1cc(-c2cccc(C(=O)Nc3nc(CCCC(=O)N4CCN(C5CCCCC5)CC4)cn3-c3ccccc3)c2)cn1` [Example 182, N-(4-(4-(4-cyclohexylpiperazin-1-yl)-4-oxobutyl)-1-phenyl-1H-imidazol-2-yl)-3-(1-methyl-1H-pyrazol-4-yl)benzamide], the IC50 was below 50 nM.

Consider `CN1CCN(C(=O)CCCc2cn(-c3ccccc3)c(NC(=O)c3cccc(-c4ccc5scnc5c4)c3)n2)CC1` [Example 284, 3-(benzo[d]thiazol-5-yl)-N-(4-(4-(4-methylpiperazin-1-yl)-4-oxobutyl)-1-phenyl-1H-imidazol-2-yl)benzamide], for which the IC50 is above 100 nM.

On to `CC(C)N1CCN(C(=O)CCCc2cn(-c3ccccc3)c(NC(=O)c3cccc(-c4cnn(C)c4)c3)n2)CC1` [Example 145, N-(4-(4-(4-isopropylpiperazin-1-yl)-4-oxobutyl)-1-phenyl-1H-imidazol-2-yl)-3-(1-methyl-1H-pyrazol-4-yl)benzamide], for which the IC50 is below 50 nM.

Turning to `Cn1cc(-c2cccc(C(=O)Nc3nc(CCCC(=O)Nc4cc[nH]n4)cn3-c3ccccc3)c2)cn1` [Example 217, N-(4-(4-((1H-pyrazol-3-yl)amino)-4-oxobutyl)-1-phenyl-1H-imidazol-2-yl)-3-(1-methyl-1H-pyrazol-4-yl)benzamide], the IC50 is below 50 nM.

As to `CNC(=O)CCCc1cn(-c2ccc(F)cc2)c(NC(=O)c2cccc(-c3cn[nH]c3)c2)n1` [Example 297, N-(1-(4-fluorophenyl)-4-(4-(methylamino)-4-oxobutyl)-1H-imidazol-2-yl)-3-(1H-pyrazol-4-yl)benzamide], the IC50 was below 50 nM.

The molecule `O=C(CCCc1cn(-c2ccccc2)c(NC(=O)c2cccc(-c3ccncc3)c2)n1)NC1CC1` [Example 267, N-(4-(4-(cyclopropylamino)-4-oxobutyl)-1-phenyl-1H-imidazol-2-yl)-3-(pyridin-4-yl)benzamide] came in with an IC50 below 50 nM.

The molecule `COC(=O)CCCCc1cn(-c2ccccc2)c(NC(=O)c2cccc(-c3cn[nH]c3)c2)n1` [Example 77, methyl 5-(2-(3-(1H-pyrazol-4-yl)benzamido)-1-phenyl-1H-imidazol-4-yl)pentanoate] showed an IC50 below 50 nM.

`Cn1cc(-c2cccc(C(=O)Nc3nc(CCCC(=O)NCC4CCOC4)cn3-c3ccccc3)c2)cn1` (centres unmarked) [Example 180, 3-(1-methyl-1H-pyrazol-4-yl)-N-(4-(4-oxo-4-(((tetrahydrofuran-3-yl)methyl)amino)butyl)-1-phenyl-1H-imidazol-2-yl)benzamide] gave an IC50 below 50 nM.

Consider `O=C(Nc1nc(CCCCCCN2CCCCC2)cn1-c1ccccc1)c1cccc(-c2cccc3[nH]ncc23)c1` [Example 255, 3-(1H-indazol-4-yl)-N-(1-phenyl-4-(6-(piperidin-1-yl)hexyl)-1H-imidazol-2-yl)benzamide], for which the IC50 was below 50 nM.

Molecule `O=C(CCc1cn(-c2ccccc2)c(NC(=O)c2cccc(-c3cn[nH]c3)c2)n1)Nc1ccccc1` [Example 6, N-(4-(3-oxo-3-(phenylamino)propyl)-1-phenyl-1H-imidazol-2-yl)-3-(1H-pyrazol-4-yl)benzamide] gave an IC50 below 50 nM.

Consider `O=C(Nc1nc(CCC(=O)N2CCCCC2)cn1-c1ccccc1)c1cccc(-c2cn[nH]c2)c1` [Example 12, N-(4-(3-oxo-3-(piperidin-1-yl)propyl)-1-phenyl-1H-imidazol-2-yl)-3-(1H-pyrazol-4-yl)benzamide], for which the IC50 is below 50 nM.

As for `Cn1cc(-c2cccc(C(=O)Nc3nc(CCCC(=O)N4CCNCC4)cn3-c3ccccc3)c2)cn1` [Example 202, 3-(1-methyl-1H-pyrazol-4-yl)-N-(4-(4-oxo-4-(piperazin-1-yl)butyl)-1-phenyl-1H-imidazol-2-yl)benzamide], the IC50 was below 50 nM.

`CN(C)c1ccc(NC(=O)CCCc2cn(-c3ccccc3)c(NC(=O)c3cccc(-c4cnn(C)c4)c3)n2)cc1` [Example 155, N-(4-(4-((4-(dimethylamino)phenyl)amino)-4-oxobutyl)-1-phenyl-1H-imidazol-2-yl)-3-(1-methyl-1H-pyrazol-4-yl)benzamide] gave an IC50 below 50 nM.

A word on the IC50: it is the concentration that gives 50% inhibition.
